For data set [1], the system named is HCMV. As to the kind of experiment: Anti-HCMV (anti-human cytomegalovirus) cytopathogenicity test. The class given is cell-based. Particulars: for EC50: Human betaherpesvirus 5, 144 h, concentration inhibiting CPE by 50% vs untreated virus control, HCMV-infected NHDF cells, M.O.I. 0.001-0.002, 6 days; for SI HCMV (selectivity index): SI = CC50 (NHDF)/EC50 (HCMV). As for the experimental part:
Anti-HCMV (Anti-Human Cytomegalovirus) Cytopathogenicity Tests The test compounds are employed as 50 millimolar (mM) solutions in dimethyl sulfoxide (DMSO). Ganciclovir®, Foscamet® and Cidofovir® are used as reference compounds. After the addition of in each case 2 μl of the 50, 5, 0.5 and 0.05 mM DMSO stock solutions to 98 μl portions of cell culture medium in row […] for duplicate determinations, 1:2 dilutions are carried out with 50 μl portions of medium up to row 1 l of the 96-well plate. The wells in rows 1 and 12 each contain 50 μl of medium. 150 μl of a suspension of 1×10^4 cells (human prepuce fibroblasts [NHDF]) are then pipetted into each of the wells (row I=cell control) and, in rows 2-12, a mixture of HCMV-infected and uninfected NHDF cells (M.O.I.=0.001-0.002), i.e. 1-2 infected cells per 1000 uninfected cells. Row 12 (without substance) serves as virus control. The final test concentrations are 250-0.0005 μM. The plates are incubated at 37° C./5% CO2 for 6 days, i.e. until all the cells are infected in the virus controls (100% cytopathogenic effect [CPE]). The wells are then fixed and stained by the addition of a mixture of formalin and Giemsa's dye (30 minutes), washed with double-distilled water and dried in a drying oven at 50° C. The plates are then assessed visually using an overhead microscope (plaque multiplier from Technomara). The following data can be acquired from the test plates: EC50 (HCMV)=substance concentration in μM which inhibits the CPE (cytopathic effect) by 50% compared with the untreated virus control; SI (selectivity index)=CC50 (NHDF)/EC50 (HCMV).
(In general: Cytopathic effects are the visible damage that an infection or toxin causes in cultured cells.)

Data set [2] is described as follows: Cytostatic effects on NHDF cells in the anti-HCMV cytopathogenicity test. The class given is cell-based. Particulars: human, human prepuce fibroblasts (NHDF cells); substance concentration at which no visible cytostatic effects on NHDF cells are evident vs untreated cell control; 6 days incubation. The method, then: Anti-HCMV (Anti-Human Cytomegalovirus) Cytopathogenicity Tests The test compounds are employed as 50 millimolar (mM) solutions in dimethyl sulfoxide (DMSO). Ganciclovir®, Foscamet® and Cidofovir® are used as reference compounds. After the addition of in each case 2 μl of the 50, 5, 0.5 and 0.05 mM DMSO stock solutions to 98 μl portions of cell culture medium in row […] for duplicate determinations, 1:2 dilutions are carried out with 50 μl portions of medium up to row 1 l of the 96-well plate. The wells in rows 1 and 12 each contain 50 μl of medium. 150 μl of a suspension of 1×10^4 cells (human prepuce fibroblasts [NHDF]) are then pipetted into each of the wells (row I=cell control) and, in rows 2-12, a mixture of HCMV-infected and uninfected NHDF cells (M.O.I.=0.001-0.002), i.e. 1-2 infected cells per 1000 uninfected cells. Row 12 (without substance) serves as virus control. The final test concentrations are 250-0.0005 μM. The plates are incubated at 37° C./5% CO2 for 6 days, i.e. until all the cells are infected in the virus controls (100% cytopathogenic effect [CPE]). The wells are then fixed and stained by the addition of a mixture of formalin and Giemsa's dye (30 minutes), washed with double-distilled water and dried in a drying oven at 50° C. The plates are then assessed visually using an overhead microscope (plaque multiplier from Technomara). The following data can be acquired from the test plates: CC50 (NHDF)=substance concentration in μM at which no visible cytostatic effects on the cells are evident compared with the untreated cell control;

Structures can show the parent of a compound that is named as a salt.

Consider `COc1c(N2C[C@@H](C)N(C(C)C(=O)O)[C@@H](C)C2)c(F)cc2c(=O)c(C(=O)NCc3ccc(Cl)cc3Cl)cn(C3CC3)c12` (stereo partly drawn) [Example 49], for which, in data set [1], the response was half-maximal at 0.018 µM (EC50) and the “SI HCMV (selectivity index)” value is 5222. Besides, the CC50 (usually the concentration at which the toxic effect on the cells reaches its halfway point) at 6 days in data set [2] came to 94 µM.

Consider `COc1c(N2C[C@@H](C)N(CC(=O)O)[C@@H](C)C2)c(F)cc2c(=O)c(C(=O)NCc3ccc(Cl)cc3C)cn([C@H]3C[C@H]3F)c12` [Example 36], for which, in data set [1], the EC50 (as a rule, the concentration needed to bring the measured effect to its halfway point) came out at 0.005 µM and the “SI HCMV (selectivity index)” value was found to be 6402. The midpoint of cytotoxicity in data set [2], the CC50 at 6 days, lay at 24 µM.

With `CCOC(=O)CN1[C@H](C)CN(c2c(F)cc3c(=O)c(C(=O)NCc4ccc(Cl)cc4Cl)cn(CC(F)(F)F)c3c2OC)C[C@@H]1C` [Example 1, Ethyl{(2RS,6SR)-4-[3-{[(2,4-dichlorobenzyl)amino]carbonyl}-6-fluoro-8-methoxy-4-oxo-1-(2,2,2-trifluoroethyl)-1,4-dihydroquinolin-7-yl]-2,6-dimethylpiperazin-1-yl}ethanoate hydroformate], in data set [1], a half-maximal response (EC50) required 0.019 µM and the “SI HCMV (selectivity index)” value stood at 579. The compound also returned a half-maximal cytotoxic concentration (CC50) at 6 days in data set [2] of 11 µM.

Take `COc1c(N2C[C@@H](C)N(CC(=O)O)[C@@H](C)C2)c(F)cc2c(=O)c(C(=O)NCc3ccc(Cl)cc3Cl)cn(CCF)c12` [Example 30]: in data set [1], the EC50 turned out to be 0.008 µM and the “SI HCMV (selectivity index)” value stood at 5875. In data set [2], this compound displayed a half-maximal cytotoxic concentration (CC50) at 6 days of 47 µM.

Consider `COc1c(N2C[C@@H](C)N(CC(=O)O)[C@@H](C)C2)c(F)cc2c(=O)c(C(=O)NCc3ccc(Cl)cc3Cl)cn(CC(F)(F)F)c12` [Example 28, {(2RS,6SR)-4-[3-{[(2,4-Dichlorobenzyl)amino]carbonyl}-6-fluoro-8-methoxy-4-oxo-1-(2,2,2-trifluoroethyl)-1,4-dihydroquinolin-7-yl]-2,6-dimethylpiperazin-1-yl}ethanoic acid hydroformate], for which, in data set [1], the response was half-maximal at 0.0023 µM (EC50) and the “SI HCMV (selectivity index)” value was found to be 8032. Further, in data set [2], the midpoint of cytotoxicity, the CC50 at 6 days, lay at 18 µM.

As for `COc1c(N2C[C@@H](C)N(CC(=O)O)[C@@H](C)C2)c(F)cc2c(=O)c(C(=O)NCc3ccc(Cl)cc3Cl)cn(C3CC3)c12` [Example 29, 4-[3-{1-Cyclopropyl-[(2,4-dichlorobenzyl)amino]carbonyl}-1-fluoro-8-methoxy-4-oxo-1,4-dihydroquinolin-7-yl]-(2RS,6SR)-2,6-dimethylpiperazin-1-yl}ethanoic acid hydrochloride], in data set [1], the concentration for a half-maximal effect (EC50) is 0.01 µM and the “SI HCMV (selectivity index)” value is reported as 4700. In addition, half-maximal cytotoxicity in data set [2] (CC50 at 6 days) was put at 47 µM.

(Values after patent publication US7569563B2, “Substituted quinolones II” (AiCuris GmbH & Co. HK, priority 2005, dated 2009).)
